These results are taken from US8853236B2, “Formulations containing clopidogrel and sulfoalkyl ether cyclodextrin and methods of use” (Cydex Pharmaceuticals, Inc., priority 2007, dated 2014).

The conditions of series [1]: in vivo; cited from earlier work.
A further series has as its system animals. The following applies: in animals; cited from earlier work.
Series [2] can be described thus: Competitive binding study of clopidogrel bisulfate and aspirin with SAE-CD (Example 22). In kind it is physicochemical. As to conditions: pH ~5.5. Here is the method: In this example, excess clopidogrel bisulfate was added to solutions containing fixed amounts of SAE-CD and varying amounts of aspirin. FIG. 7 depicts the results of a competitive binding study. […] Thus, in a formulation containing both clopidogrel and aspirin, the formulation may or may not require additional SAE-CD to solubilize both ingredients than would be required to solubilize either component individually.
The competitive binding study was conducted using clopidogrel bisulphate and aspirin (ASA, acetyl salicylic acid). The work was conducted on an auto-titrator such that the pH was maintained at ˜5.5 using sodium hydroxide. The required amount of SBE-β-CD and aspirin was first solubilized in 0.2 μm Millipore filtered water then transferred to the auto-titrator.
After equilibration, the solutions were sampled and analyzed for clopidogrel content.

Series [3] has as its system ADP-induced platelet aggregation. The following applies: i.v., 0.1-300 mg clopidogrel.
Method: The response was determined as percent of platelet aggregation inhibition following exposure of the subjects' plasma ex-vivo to ADP (5 μM).
Blood samples for determination of ADP-induced platelet aggregation inhibition using the impedance method (see Dyszkiewicz-Korpanty et al. above) were obtained from arm #2 (the arm not used for dosing) at baseline (check-in, Day −1), 15 and 30 minutes, and 2, 5, and 24 hours after dose initiation.
Maximum % platelet inhibition and area under the % platelet inhibition curve was calculated for each individual and summarized by treatment group
The test system of another series is platelet aggregation. The following applies: subjects who were non-responders to clopidogrel (10-300 mg) perorally.
For series [4] the following is noted: pH 5.6, 37° C., 0.1M phosphate buffer; cited from earlier work.
The next series deals with phosphodiesterase. The following applies: cited from earlier work.

Bounds are passed on as bounds.

As for `COC(=O)[C@@H](c1ccccc1Cl)N1CCc2sccc2C1` (single isomer, unassigned) [(R)-enantiomer of clopidogrel], the antithrombotic activity entry in series [1] was “devoid of antithrombotic activity”. Also, in the series with animals, the convulsions entry is given as “can provoke convulsions”.

As to `CC(=O)Oc1ccccc1C(=O)O` [aspirin, acetyl salicylic acid], in series [2], the “binding with SAE-CD in a solution containing SAE-CD and clopidogrel salt” value is given as “binds competitively”.

Take `COC(=O)[C@H](c1ccccc1Cl)N1CCc2sccc2C1.O=S(=O)(O)O` [clopidogrel bisulfate, methyl (+)-(S)-α-(2-chlorophenyl)-6,7-dihydrothieno[3,2-c]pyridine-5(4H)-acetate sulfate (1:1)]: in series [3], the “time to onset of the therapeutic effect (platelet aggregation inhibition, 5 μM ADP ex vivo)” value was no more than 15 min. For the same molecule, the “subjects deemed responders after parenteral administration” value with platelet aggregation is on record as 9-25%. The t90 toward hydrolysis result in series [4] is recorded as “about 52.7 days”. For the same molecule, the “inhibition of phosphodiesterase activity” value in the series on phosphodiesterase is recorded as “does not inhibit”.
